What was measured:
[1] = format: in vitro ADME, Dutch Belted rabbits; settings: Dutch Belted, rabbit, 1 μM, pH 6
Description: Dutch Belted rabbits were euthanized with an overdose of sodium pentobarbital. The corneas were collected and homogenized in ice-cold potassium chloride solution (pH=7.4). The homogenate was centrifuged at 755×g for 30 min at 4° C. and aliquots of the supernatant were stored at or below −70° C. until metabolism experiments were conducted. Prior to storing the homogenates an aliquot was removed for determination of protein concentrations by calculating the 260 nm absorbance using a spectrophotometer. Human recombinant carboxylesterases were purchased from a commercial vendor (BD Gentest™, Bedford, Mass.)
All metabolic stability experiments were performed in triplicate in 96-well plate format. The final incubation mixture contained 1 μM test compound, 0.3 mg/mL corneal protein homogenate or 0.1 mg/mL human recombinant carboxylesterase mixture in a final volume of 0.5 mL 0.1M potassium phosphate buffer (pH=6.0). The final percentage of solvent in the incubation was less than 1.0% to prevent inhibition of enzymatic activity. Following a pre-incubation at 37° C., test article was added to initiate the reaction. At designated time points (typically less than 60 minutes to capture the linear range of metabolite formation), 0.05 mL aliquots were removed from the incubation mixtures using a clean pipet tip and immediately placed in organic solvent to stop any esterase activity. The hydrolysis to the metabolites was confirmed to be due to esterase activity and not chemical lability.
The samples were analyzed by liquid chromatography with mass spectrometry (LC-MS/MS) detection to determine the metabolite concentrations resulting from the metabolism of the hybrid compounds. Internal standards were used to compensate for variability from sample processing, chromatographic elution, mass spectrometer response and ion suppression by matrix components.

[2] = Ocular pharmacokinetics following a single topical ophthalmic administration in rabbits; format: in vivo, New Zealand White Rabbits; settings: single topical ocular dose of 0.4% (w/v) solution; cornea, aqueous humor, conjunctiva, eyelid margin; FIG. 2
Description: Rabbits were dosed once by ocular instillation to both eyes with each compound formulated in a 0.4% (w/v) solution. At 0.25, 0.5, 1, 2, 6, and 10 hours post dose cornea, aqueous humor, conjunctiva and eyelid margin were collected and stored at approximately −70° C. until bioanalysis. Ocular tissue samples were analyzed by liquid chromatography with mass spectrometry (LC-MS/MS) detection to determine the parent (i.e., ester linked hybrids) and metabolite (i.e. steroid and antibiotic) concentrations resulting from the metabolism of ester linked hybrids. Internal standards were used to compensate for variability from sample processing, chromatographic elution, mass spectrometer response and ion suppression by matrix components.

SMILES | Rate of formation Metabolite 1 (Betamethasone) [1] | Rate of formation Metabolite 2 (Gatifloxacin) [1] | Rate of formation Metabolite 1 (Dexamethasone) [1] | uptake into ocular tissues and cleavage to Prednisolone and Gatifloxacin (AUC0-10hr) [2] | Rate of formation Metabolite 1 (Prednisolone) [1]
COc1c(N2CCNC(C)C2)c(F)cc2c(=O)c(C(=O)OCC(=O)[C@]3(O)[C@H](C)C[C@@H]4[C@H]5CCC6=CC(=O)C=C[C@@]6(C)[C@]5(F)[C@H](O)C[C@]43C)cn(C3CC3)c12 (relative stereo) [Compound 1, 2-[(8R,9S,10R,11R,13R,14R,16R,17S)-9-fluoro-11,17-dihydroxy-10,13,16-trimethyl-3-oxo-6,7,8,9,10,11,12,13,14,15,16,17-dodecahydro-3H-cyclopenta[a]phenanthren-17-yl]-2-oxoethyl rel-1-cyclopropyl-6-fluoro-8-methoxy-7-(3-methylpiperazin-1-yl)-4-oxo-1,4-dihydroquinoline-3-carboxylate] | 7.27 ± 0.58 nM/min/mg | 4.45 ± 0.28 nM/min/mg | – | – | –
COc1c(N2CCNC(C)C2)c(F)cc2c(=O)c(C(=O)OCC(=O)[C@]3(O)[C@@H](C)C[C@@H]4[C@H]5CCC6=CC(=O)C=C[C@@]6(C)[C@]5(F)[C@H](O)C[C@]43C)cn(C3CC3)c12 (relative stereo) [Compound 7, 2-[(8R,9S,10R,11R,13R,14R,16S,17S)-9-fluoro-11,17-dihydroxy-10,13,16-trimethyl-3-oxo-6,7,8,9,10,11,12,13,14,15,16,17-dodecahydro-3H-cyclopenta[a]phenanthren-17-yl]-2-oxoethyl rel-1-cyclopropyl-6-fluoro-8-methoxy-7-(3-methylpiperazin-1-yl)-4-oxo-1,4-dihydroquinoline-3-carboxylate] | – | 4.93 ± 0.48 nM/min/mg | 7.31 ± 0.62 nM/min/mg | – | –
COc1c(N2CCNC(C)C2)c(F)cc2c(=O)c(C(=O)OCC(=O)[C@]3(O)CC[C@@H]4[C@H]5CCC6=CC(=O)C=C[C@@]6(C)[C@@H]5[C@H](O)C[C@]43C)cn(C3CC3)c12 (relative stereo) [Compound 12, 2-[(8R,9R,10S,11R,13R,14R,17S)-11,17-dihydroxy-10,13-dimethyl-3-oxo-6,7,8,9,10,11,12,13,14,15,16,17-dodecahydro-3H-cyclopenta[a]phenanthren-17-yl]-2-oxoethyl rel-1-cyclopropyl-6-fluoro-8-methoxy-7-(3-methylpiperazin-1-yl)-4-oxo-1,4-dihydroquinoline-3-carboxylate] | – | 3.46 ± 0.50 nM/min/mg | – | taken up into rabbit ocular tissues and enzymatically hydrolyzed to the individual antibiotic and steroid | 6.02 ± 0.63 nM/min/mg

Reference: patent publication US9402912B2, “Antibiotic conjugates directly linked with steroid drugs” (Allergan, Inc., priority 2013, dated 2016)
